# Columns and labels:
# [1] = test system: A. baumannii ATCC 19606 cells; assay: Cell morphology assay, bright-field microscopy; type: cell-based, Acinetobacter baumannii
# Experimental: In order to confirm the involvement of PBPs as targets of enmetazobactam, cell morphology assays involving exposure to enmetazobactam and sulbactam were performed following the methodology described in Supplementary materials and methods.
# To confirm the involvement of PBPs as targets of enmetazobactam, the cellular morphology of A. baumannii ATCC 19606 reference strain was analyzed after exposure to the compound at different concentrations. Bright-field microscopy was used to monitor the cell morphology. […] For microscopic visualization, aliquots of each sample were obtained, stained with crystal violet solution and observed using an Olympus BX61 microscope (Olympus).
# Changes in cell morphology were determined on the basis of alterations in septal integrity, abnormal elongation, spheroplast formation and filamentation, patterns previously associated with the selective inhibition of PBP1, PBP2 and PBP3 in Gram-negative bacilli. Specifically, PBP1 inhibition has been linked to cell lysis, PBP2 inhibition has been linked to spherification, and PBP3 inhibition to defective cell division and filament formation (1, 2). The results were qualitatively compared across different treatments to infer the potential selectivity of enmetazobactam for specific PBPs.
# [2] = test system: carbapenem-susceptible A. baumannii isolates (n = 54); assay: MIC, broth microdilution (EUCAST), carbapenem-susceptible A. baumannii isolates; type: cell-based, Acinetobacter baumannii
# Text: The bacterial strains used in this study comprised 208 clinical isolates from the Spanish National Acinetobacter spp. 2020 Multicenter Collection, which was previously characterized in detail by our research group, including whole-genome sequencing, phylogenetics studies, clonal dynamics, and resistance mechanisms ([2], [29]). Additionally, a collection of A. baumannii ATCC 17978 transformants coding the blaOXA-23, blaOXA-24/40, blaOXA-51, blaOXA-58, blaOXA-143, and blaOXA-201 genes, previously constructed and described by our group ([30]), was used to determine the activity of enmetazobactam against strains carrying the main CHDLs of A. baumannii.
# The antimicrobial susceptibility of the 208 Acinetobacter spp. isolates was assessed using the broth microdilution method, as described in the European Committee on Antimicrobial Susceptibility Testing (EUCAST) v.15 guidelines (http://www.eucast.org/clinical_breakpoints). […] MICs for enmetazobactam alone were assessed as well. […] Subsequently, MIC testing was also conducted with a collection of A. baumannii ATCC 17978 transformants expressing clinically relevant OXA-like carbapenemase genes.
# The A. baumannii ATCC 19606 strain was used as the reference strain in all susceptibility experiments, in duplicate assays. Antibiotics were purchased from Sigma-Aldrich, except enmetazobactam and durlobactam, which were obtained from Advanz Pharma and MedChemExpress, respectively.
# [3] = Acinetobacter baumannii, carbapenem-susceptible A. baumannii isolates (n = 54), ETZ fixed 8 mg/L in combinations
compound,measurement,setting,value
C[n+]1ccn(C[C@@]2(C)[C@H](C(=O)[O-])N3C(=O)C[C@H]3S2(=O)=O)n1 [enmetazobactam],cell morphology,"[1]; A. baumannii ATCC 19606, overnight exposure at 1× MIC",elongated filaments
same,cell morphology,"[1]; A. baumannii ATCC 19606, overnight exposure at 2× MIC",the filaments shortened in length
same,MIC distribution 0.12,[2],0
same,MIC,"[2]; Acinetobacter baumannii, MBC set, isolate Ab1, A. baumannii ST 164, ADC-6, OXA-91, non-CHDLs-producing",2 µg/mL
same,MIC,"[2]; Acinetobacter baumannii, MBC set, isolate Ab11, A. baumannii ST 239, ADC-2, OXA-51, non-CHDLs-producing",2 µg/mL
same,MIC,"[2]; Acinetobacter baumannii, MBC set, isolate Ab34, A. baumannii ST 2182, ADC-2, OXA-130, non-CHDLs-producing",4 µg/mL
same,MIC,"[2]; Acinetobacter baumannii, isolate Ab1, ST 164, ADC-6, OXA-91, in combinations ETZ fixed at 8 mg/L",4 µg/mL
same,MIC,"[2]; Acinetobacter baumannii, isolate Ab11, ST 239, ADC-2, OXA-51, in combinations ETZ fixed at 8 mg/L",4 µg/mL
same,MIC,"[2]; Acinetobacter baumannii, isolate Ab34, ST 2182, ADC-2, OXA-130, in combinations ETZ fixed at 8 mg/L",4 µg/mL
same,MIC,"[2]; Acinetobacter baumannii, isolate Ab38, ST 866, ADC-2, OXA-385, in combinations ETZ fixed at 8 mg/L",4 µg/mL
same,MIC,"[2]; Acinetobacter baumannii, isolate Ab40, ST 2176, ADC-2, OXA-64, in combinations ETZ fixed at 8 mg/L",4 µg/mL
same,MIC,"[2]; Acinetobacter baumannii, isolate Ab50, ST 2176, ADC-2, OXA-64, in combinations ETZ fixed at 8 mg/L",4 µg/mL
same,MIC,"[2]; Acinetobacter baumannii, isolate Ab57, ST 1470, ADC-58, OXA-106, in combinations ETZ fixed at 8 mg/L",2 µg/mL
same,MIC,"[2]; Acinetobacter baumannii, isolate Ab58, ST 6, ADC-2, OXA-94, in combinations ETZ fixed at 8 mg/L",4 µg/mL
same,MIC,"[2]; Acinetobacter baumannii, isolate Ab61, ST 1639, ADC-7, OXA-64, in combinations ETZ fixed at 8 mg/L",4 µg/mL
same,MIC,"[2]; Acinetobacter baumannii, isolate Ab62, ST 265, ADC-2, OXA-91, in combinations ETZ fixed at 8 mg/L",4 µg/mL
same,MIC,"[2]; Acinetobacter baumannii, isolate Ab67, ST 1, ADC-11, OXA-69, in combinations ETZ fixed at 8 mg/L",4 µg/mL
same,MIC,"[2]; Acinetobacter baumannii, isolate Ab79, ST 106, ADC-11, OXA-78, in combinations ETZ fixed at 8 mg/L",4 µg/mL
same,MIC,"[2]; Acinetobacter baumannii, isolate Ab80, ST 2182, ADC-6, OXA-208, in combinations ETZ fixed at 8 mg/L",4 µg/mL
same,MIC,"[2]; Acinetobacter baumannii, isolate Ab81, ST 25, ADC-79, OXA-64, in combinations ETZ fixed at 8 mg/L",4 µg/mL
same,MIC,"[2]; Acinetobacter baumannii, isolate Ab93, ST 25, ADC-79, OXA-64, in combinations ETZ fixed at 8 mg/L",4 µg/mL
same,MIC,"[2]; Acinetobacter baumannii, isolate Ab95, ST 582, ADC-5, OXA-317, in combinations ETZ fixed at 8 mg/L",2 µg/mL
same,MIC,"[2]; Acinetobacter baumannii, isolate Ab96, ST 582, ADC-5, OXA-317, in combinations ETZ fixed at 8 mg/L",2 µg/mL
same,MIC,"[2]; Acinetobacter baumannii, isolate Ab100, ST 145, ADC-58, OXA-343, in combinations ETZ fixed at 8 mg/L",2 µg/mL
same,MIC,"[2]; Acinetobacter baumannii, isolate Ab110, ST 1623, ADC-3, OXA-70, in combinations ETZ fixed at 8 mg/L",4 µg/mL
same,MIC,"[2]; Acinetobacter baumannii, isolate Ab112, ST 193, ADC-like, OXA-120, in combinations ETZ fixed at 8 mg/L",2 µg/mL
same,MIC,"[2]; Acinetobacter baumannii, isolate Ab124, ST 2176, ADC-2, OXA-64, in combinations ETZ fixed at 8 mg/L",2 µg/mL
same,MIC,"[2]; Acinetobacter baumannii, isolate Ab127, ST 2176, ADC-2, OXA-64, in combinations ETZ fixed at 8 mg/L",4 µg/mL
same,MIC,"[2]; Acinetobacter baumannii, isolate Ab128, ST 2176, ADC-2, OXA-64, in combinations ETZ fixed at 8 mg/L",2 µg/mL
same,MIC,"[2]; Acinetobacter baumannii, isolate Ab130, ST 32, ADC-79, OXA-100, in combinations ETZ fixed at 8 mg/L",2 µg/mL
same,MIC,"[2]; Acinetobacter baumannii, isolate Ab131, ST 687, ADC-like, OXA-208, in combinations ETZ fixed at 8 mg/L",2 µg/mL
same,MIC,"[2]; Acinetobacter baumannii, isolate Ab132, ST 1112, ADC-79, OXA-89, in combinations ETZ fixed at 8 mg/L",2 µg/mL
same,MIC,"[2]; Acinetobacter baumannii, isolate Ab136, ST 2183, ADC-like, OXA-66, in combinations ETZ fixed at 8 mg/L",4 µg/mL
same,MIC,"[2]; Acinetobacter baumannii, isolate Ab139, ST 54, ADC-like, OXA-365, in combinations ETZ fixed at 8 mg/L",4 µg/mL
same,MIC,"[2]; Acinetobacter baumannii, isolate Ab142, ST 1, ADC-like, OXA-69, in combinations ETZ fixed at 8 mg/L",8 µg/mL
same,MIC,"[2]; Acinetobacter baumannii, isolate Ab143, ST 1328, ADC-76, OXA-408, in combinations ETZ fixed at 8 mg/L",4 µg/mL
same,MIC,"[2]; Acinetobacter baumannii, isolate Ab149, ST 1112, ADC-6, OXA-407, in combinations ETZ fixed at 8 mg/L",8 µg/mL
same,MIC,"[2]; Acinetobacter baumannii, isolate Ab150, ST 2184, ADC-like, OXA-64, in combinations ETZ fixed at 8 mg/L",4 µg/mL
same,MIC,"[2]; Acinetobacter baumannii, isolate Ab152, ST 132, ADC-2, OXA-120, in combinations ETZ fixed at 8 mg/L",4 µg/mL
same,MIC,"[2]; Acinetobacter baumannii, isolate Ab158, ST 2034, ADC-2, OXA-217, in combinations ETZ fixed at 8 mg/L",2 µg/mL
same,MIC,"[2]; Acinetobacter baumannii, isolate Ab163, ST 132, ADC-2, OXA-120, in combinations ETZ fixed at 8 mg/L",2 µg/mL
same,MIC,"[2]; Acinetobacter baumannii, isolate Ab167, ST 1623, ADC-like, OXA-345, in combinations ETZ fixed at 8 mg/L",2 µg/mL
same,MIC,"[2]; Acinetobacter baumannii, isolate Ab168, ST 1470, ADC-75, OXA-402, in combinations ETZ fixed at 8 mg/L",2 µg/mL
same,MIC,"[2]; Acinetobacter baumannii, isolate Ab170, ST 2110, ADC-4, OXA-338, in combinations ETZ fixed at 8 mg/L",4 µg/mL
same,MIC,"[2]; Acinetobacter baumannii, isolate Ab172, ST 2185, ADC-5, OXA-217, in combinations ETZ fixed at 8 mg/L",2 µg/mL
same,MIC,"[2]; Acinetobacter baumannii, isolate Ab185, ST 2, ADC-26, OXA-66, in combinations ETZ fixed at 8 mg/L",4 µg/mL
same,MIC,"[2]; Acinetobacter baumannii, isolate Ab187, ST 105, ADC-2, OXA-430, in combinations ETZ fixed at 8 mg/L",2 µg/mL
same,MIC,"[2]; Acinetobacter baumannii, isolate Ab188, ST 203, ADC-6, OXA-217, PDC-1, in combinations ETZ fixed at 8 mg/L",4 µg/mL
same,MIC,"[2]; Acinetobacter baumannii, isolate Ab189, ST 1405, ADC-3, OXA-120, in combinations ETZ fixed at 8 mg/L",2 µg/mL
same,MIC,"[2]; Acinetobacter baumannii, isolate Ab190, ST 2186, ADC-6, OXA-413, in combinations ETZ fixed at 8 mg/L",2 µg/mL
same,MIC,"[2]; Acinetobacter baumannii, isolate Ab193, ST 164, ADC-6, OXA-91, in combinations ETZ fixed at 8 mg/L",2 µg/mL
same,MIC,"[2]; Acinetobacter baumannii, isolate Ab195, ST 1, ADC-11, OXA-69, in combinations ETZ fixed at 8 mg/L",2 µg/mL
same,MIC,"[2]; Acinetobacter baumannii, isolate Ab200, ST 1336, ADC-2, OXA-51, in combinations ETZ fixed at 8 mg/L",2 µg/mL
same,MIC,"[2]; Acinetobacter baumannii, isolate Ab202, ST 1, ADC-11, OXA-69, in combinations ETZ fixed at 8 mg/L",2 µg/mL
same,MIC,"[2]; Acinetobacter baumannii, isolate Ab203, ST 221, ADC-6, OXA-88, in combinations ETZ fixed at 8 mg/L",2 µg/mL
same,MIC,"[2]; Acinetobacter baumannii, isolate Ab206, ST 2187, ADC-58, OXA-69, in combinations ETZ fixed at 8 mg/L",2 µg/mL
same,MIC,"[2]; Acinetobacter baumannii, isolate Ab209, in combinations ETZ fixed at 8 mg/L",1 µg/mL
same,MIC,"[2]; Acinetobacter baumannii, isolate Ab213, in combinations ETZ fixed at 8 mg/L",2 µg/mL
same,MIC,"[2]; Acinetobacter baumannii, isolate Ab218, in combinations ETZ fixed at 8 mg/L",2 µg/mL
same,MIC,"[2]; Acinetobacter baumannii, isolate Ab220, in combinations ETZ fixed at 8 mg/L",1 µg/mL
same,MIC50,[2]; [3],2 µg/mL
same,MIC90,[2]; [3],4 µg/mL
same,MIC distribution 0.25,"[2]; cumulative share of carbapenem-susceptible A. baumannii isolates (n = 54) at MIC 0.25 mg/L, ETZ fixed 8 mg/L in combinations",0
same,MIC distribution 0.5,"[2]; cumulative share of carbapenem-susceptible A. baumannii isolates (n = 54) at MIC 0.5 mg/L, ETZ fixed 8 mg/L in combinations",0
same,MIC distribution 1,"[2]; cumulative share of carbapenem-susceptible A. baumannii isolates (n = 54) at MIC 1 mg/L, ETZ fixed 8 mg/L in combinations",3.7
same,MIC distribution 2,"[2]; cumulative share of carbapenem-susceptible A. baumannii isolates (n = 54) at MIC 2 mg/L, ETZ fixed 8 mg/L in combinations",51.9
same,MIC distribution 4,"[2]; cumulative share of carbapenem-susceptible A. baumannii isolates (n = 54) at MIC 4 mg/L, ETZ fixed 8 mg/L in combinations",96.3
same,MIC distribution 8,"[2]; cumulative share of carbapenem-susceptible A. baumannii isolates (n = 54) at MIC 8 mg/L, ETZ fixed 8 mg/L in combinations",100
same,MIC distribution 16,"[2]; cumulative share of carbapenem-susceptible A. baumannii isolates (n = 54) at MIC 16 mg/L, ETZ fixed 8 mg/L in combinations",100
same,MIC distribution ≤0.06,"[2]; cumulative share of carbapenem-susceptible A. baumannii isolates (n = 54) at MIC ≤0.06 mg/L, ETZ fixed 8 mg/L in combinations",0
same,MIC distribution ≥32,"[2]; cumulative share of carbapenem-susceptible A. baumannii isolates (n = 54) at MIC ≥32 mg/L, ETZ fixed 8 mg/L in combinations",100
